Results published in patent publication EP0463212A1, “Imidazo[2,1-b]thiazole compound anti-ulcer agent containing the same” (NIKKEN CHEMICALS CO., LTD., priority 1990, dated 1992).

Columns and labels:
[1] = tested on: water-immersion stress ulcer; test: Antiulcer activity against water-immersion stress ulcer model; type: in vivo, Wistar strain male rats; conditions: 100 mg/kg oral; for Ulcer index: 30 min before water immersion at 22 ± 1°C, stress load for 6 hours; for Inhibition rate: 30 min before water immersion stress for 6 hours, versus control group
Experimental: Antiulcer activity against water-immersion stress ulcer model
A suspension of each test compound in 5% gum arabic aqueous solution was orally given to Wistar strain male rats (at the age of 7 to 8 weeks, weighing 191 to 238 g; 7-8 rats in the group administered with the test compound; 14-16 rats in the control group) fasted for 24 hours at a dose of 100 mg of the test compound/5 ml/kg. Thirty minutes after administration, the animal was immersed up to the xiphisternum in water bath at 22 ± 1°C using a stress cage made by Tokyo University, Faculty of Pharmacology to apply a stress load for 6 hours. After applying the stress load, the rats had the cervical vertebra dislocated to death. Then, the stomach was excised and, spotted and linear erosion and a long diameter of ulcer were microscopically measured to determine an ulcer index and an inhibition rate.
(§1) In the control group, 5% gum arabic aqueous solution was orally administered at a dose of 5 ml/kg.

ethanol-induced ulcer = test: Antiulcer activity against ethanol-induced ulcer model; type: in vivo, Wistar strain male rats; conditions: 100 mg/kg oral; for Ulcer index: 30 min before absolute ethanol 5 ml/kg oral, 1 hour after ethanol; for Inhibition rate: versus control group
Experimental: Antiulcer activity against ethanol-induced ulcer model
A suspension of each test compound in 5% gum arabic aqueous solution was orally given to Wistar strain male rats (at the age of 7 to 8 weeks, weighing 180 to 250 g; 5-9 rats in the group administered with the test compound; 4-9 rats in the control group) fasted for 24 hours at a dose of 100 mg of the test compound/5 ml/kg. Thirty minutes after administration, absolute ethanol was further orally administered at a dose of 5 mℓ/kg. One hour after administration of absolute ethanol, the stomach was excised under ethereal anesthesia and the area of an ulcerated portion (mm²) (using microscope) or the proportion (%) thereof to all area of gastric wall (by computer image analysis) were measured to determine an ulcer index and an inhibition rate.
as §1

aspirin-induced ulcer = test: Antiulcer activity against aspirin-induced ulcer model; type: in vivo, Wistar strain male rats; conditions: 100 mg/kg oral, 30 min before aspirin 200 mg/kg oral; for Ulcer index: stomach excised 7 hours after aspirin, rats fasted 24 hours; for Inhibition rate: versus control group
Experimental: Antiulcer activity against aspirin-induced ulcer model
A suspension of each test compound in 5% gum arabic aqueous solution was orally given to Wistar strain male rats (at the age of 7 to 8 weeks, weighing 180 to 227 g; 7-8 rats in the group administered with the test compound; 14-16 rats in the control group) fasted for 24 hours at a dose of 100 mg of the test compound/5 ml/kg. Thirty minutes after administration, aspirin was further orally administered at a dose of 200 mg/kg. Seven hours after administration of aspirin, stomach was excised under ethereal anesthesia and spotted and linear erosion and a long diameter of ulcer were microscopically measured to determine an ulcer index and an inhibition rate.
as §1

[2] = tested on: SLC-ICR or SLC-ddy strain male mice; test: Acute toxicity; type: in vivo; conditions: oral, once, observed for 7 days
Experimental: A suspension of each test compound in 5% gum arabic aqueous solution was orally given to SLC-ICR or SLC-ddy strain male mice (at the age of 6 to 7 weeks, weighing 26.6 to 33.6 g; 3-8 mice in one group) forcedly once at a dose of 500 mg and 1,000mg of the test compound/5mℓ/kg. For 7 days after the administration, the mice were observed whether they were dead or alive.

gastric juice secretion = test: Gastric juice secretion inhibition activity (pyloric ligature); type: in vivo, Wistar strain male rats; conditions: 100 mg/kg oral; for Gastric juice (pH) / Free HCℓ / Pepsin output / Total acidity: four hours after; for Free HCℓ: Töpfer reagent; for Pepsin output: casein as substrate; for Total acidity: phenolphthalein reagent; for Gastric juice: gastric juice collected four hours after
Experimental: Gastric juice secretion inhibition activity
A suspension of each test compound in 5% gum arabic aqueous solution was orally given to Wistar strain male rats (at the age of 7 to 8 weeks, weighing 192 to 241 g; 7-9 rats in the group administered with the test compound; 15 rats in the control group) fasted for 24 hours at a dose of 100 mg of the test compound/5 ml/kg. Thirty minutes after administration (the compounds of Examples 3 and 4) or 60 minutes after administration (the compounds of Examples 1, 2, 5, 6 and 7), pyloric ligature was made under ethereal anesthesia. Four hours after, the stomach was excised under ethereal anesthesia to collect gastric juice. The collected gastric juice was centrifuged (2500 rpm) at 4°C for 10 minutes. After the supernatant was collected, an amount of the gastric juice and its pH were measured using a pH meter. Furthermore, an amount of free hydrochloric acid and the total acidity were measured with Töpfer reagent and phenolphthalein reagent, respectively. Using a part of the gastric juice, pepsin output in the gastric juice was measured using casein as substrate in a manner similar to the method of Anson et al.
as §1

[3] = area of ulcerated portion (microscope)
[4] = pyloric ligature 30 minutes after administration
[5] = proportion of ulcerated area to all area of gastric wall (computer image analysis)
[6] = pyloric ligature 60 minutes after administration

Structure (SMILES) | Ulcer index [1] | Inhibition rate [1] | Ulcer index (ethanol-induced ulcer; [3]) | Inhibition rate (ethanol-induced ulcer; from ulcer index in mm^2) | Ulcer index (aspirin-induced ulcer) | Inhibition rate (aspirin-induced ulcer) | Mortality rate (No. of death/No. of treated) ([2]; 500 mg/kg) | Mortality rate (No. of death/No. of treated) ([2]; 1000 mg/kg) | Gastric juice (pH) (gastric juice secretion; [4]) | Free HCℓ (gastric juice secretion; [4]) | Pepsin output (gastric juice secretion; [4]) | Total acidity (gastric juice secretion; [4]) | Gastric juice (gastric juice secretion; [4]) | Ulcer index (ethanol-induced ulcer; [5]) | Inhibition rate (ethanol-induced ulcer; from ulcer index in %) | Gastric juice (pH) (gastric juice secretion; [6]) | Free HCℓ (gastric juice secretion; [6]) | Pepsin output (gastric juice secretion; [6]) | Total acidity (gastric juice secretion; [6]) | Gastric juice (gastric juice secretion; [6])
Cc1nc2scc(C)n2c1C(O)c1ccccc1 (stereo not drawn) [Ex. 8, 3,6-dimethyl-5-(hydroxy-phenyl)-methylimidazo[2,1-b]-thiazole] | 2.8 ± 0.5 mm | 82.0% | 15.3 ± 8.5^** mm^2 | 82.2% |  |  |  |  |  |  |  |  |  |  |  |  |  |  |  | 
Cc1nc2sccn2c1C(O)c1ccccc1 (stereo not drawn) [Ex. 3, 5-(hydroxy-phenyl)-methyl-6-methyl-imidazo[2,1-b]thiazole] | 3.6 ± 2.0 mm | 83.3% |  |  | 31.7 ± 5.9 mm | 44.8% | 2/6 | 3/3 | 1.66 ± 0.09 pH | 35.1 ± 5.0 mEq/l | 157.7 ± 17.6 units/hr | 66.6 ± 4.7 mEq/l | 6.4 ± 0.7 mL |  |  |  |  |  |  | 
Cc1nc2sccn2c1C(O)c1ccc(F)cc1 (stereo not drawn) [Ex. 11, 5-{hydroxy-(4-fluorophenyl)}methyl-6-methylimidazo[2,1-b]thiazole] |  |  |  |  |  |  |  |  |  |  |  |  |  | 1.2 ± 0.5 % | 92.9% |  |  |  |  | 
Cc1ccc(C(O)c2c(C)nc3sccn23)cc1 (stereo not drawn) [Ex. 9, 5-{hydroxy-(4-methylphenyl)}methyl-6-methylimidazo[2,1-b]thiazole] |  |  |  |  |  |  |  |  |  |  |  |  |  | 6.8 ± 1.5 % | 59.8% |  |  |  |  | 
CCCCc1sc2nc(C)c(C(O)c3ccccc3)n2c1C (stereo not drawn) [Ex. 7, 2-butyl-3,6-dimethyl-5-(hydroxy-phenyl)-methylimidazo[2,1-b]-thiazole] | 25.5 ± 5.5 mm |  |  |  | 65.1 ± 8.5 mm | 8.2% | 0/5 | 0/5 |  |  |  |  |  |  |  | 1.13 ± 0.03 pH | 220.6 ± 32.5 mcEq/100g | 27.2 ± 2.3 mg of tyrosine/100g | 260.5 ± 32.9 mcEq/100g | 2.91 ± 0.29 mℓ/100g
CCCC(O)c1c(C)nc2sccn12 (stereo not drawn) [Ex. 4, 5-(1-hydroxybutyl)-6-methylimidazo[2,1-b]-thiazole] | 7.4 ± 1.5 mm | 68.2% | 9.2 ± 3.1^** mm^2 | 94.2% | 41.3 ± 3.8 mm | 38.2% | 3/8 | 5/5 | 2.54 ± 0.27 pH | 14.3 ± 7.4 mEq/l | 83.1 ± 19.4 units/hr | 68.8 ± 3.6 mEq/l | 3.6 ± 0.8 mL |  |  |  |  |  |  | 
CCCCc1sc2nc(C)c(CO)n2c1C [Ex. 2, 2-butyl-3,6-dimethyl-5-hydroxymethylimidazo[2,1-b]thiazole] | 13.3 ± 3.9 mm | 43.9% |  |  | 52.7 ± 7.8 mm | 25.7% | 0/5 | 0/5 |  |  |  |  |  |  |  | 1.29 ± 0.08 pH | 111.0 ± 36.3 mcEq/100g | 15.9 ± 2.1 mg of tyrosine/100g | 147.2 ± 37.4 mcEq/100g | 1.63 ± 0.28 mℓ/100g
Cc1nc2scc(C)n2c1CO [Ex. 1, 3,6-dimethyl-5-hydroxymethylimidazo[2,1-b]thiazole] | 2.6 ± 0.9 mm | 89.0% |  |  | 38.6 ± 7.9 mm | 45.6% | 0/5 | 1/5 |  |  |  |  |  |  |  | 2.02 ± 0.31 pH | 33.9 ± 14.9 mcEq/100g | 12.0 ± 1.6 mg of tyrosine/100g | 70.6 ± 17.4 mcEq/100g | 1.12 ± 0.18 mℓ/100g
CCCCc1sc2nc(C)c(C(O)CCC)n2c1C (stereo not drawn) [Ex. 6, 2-butyl-3,6-dimethyl-5-(1-hydroxybutyl)-imidazo[2,1-b]thiazole] | 18.8 ± 4.7 mm | 20.7% |  |  | 37.5 ± 7.4 mm | 47.1% | 0/5 | 0/5 |  |  |  |  |  |  |  | 1.36 ± 0.17 pH | 132.7 ± 33.8 mcEq/100g | 21.6 ± 2.7 mg of tyrosine/100g | 172.6 ± 36.5 mcEq/100g | 2.00 ± 0.27 mℓ/100g
Cc1nc2sccn2c1C(C)O (stereo not drawn) [Ex. 5, 5-(1-hydroxyethyl)-6-methylimidazo[2,1-b]-thiazole] | 19.5 ± 5.8 mm | 17.7% |  |  | 29.6 ± 6.8 mm | 58.3% | 2/5 | 3/5 |  |  |  |  |  |  |  | 1.48 ± 0.11 pH | 68.4 ± 19.6 mcEq/100g | 16.6 ± 2.2 mg of tyrosine/100g | 117.0 ± 20.8 mcEq/100g | 1.41 ± 0.15 mℓ/100g
Cc1nc2scc(C)n2c1C(O)c1ccc(F)cc1 (stereo not drawn) [Ex. 12, 3,6-dimethyl-5-{hydroxy-(4-fluorophenyl)}-methylimidazo[2,1-b]-thiazole] |  |  |  |  |  |  |  |  |  |  |  |  |  | 6.3 ± 1.3 % | 62.7% |  |  |  |  | 
COc1ccc(C(O)c2c(C)nc3sccn23)cc1OC (stereo not drawn) [Ex. 10, 5-{hydroxy-(3,4-dimethoxyphenyl)}-methyl-6-methyl-imidazo[2,1-b]thiazole] |  |  |  |  |  |  |  |  |  |  |  |  |  | 2.7 ± 0.9 % | 84.0% |  |  |  |  | 
